Measurements published in the Kinase Knowledgebase extract (Sharma et al. 2016).

Experiments:
[1] = target: PIK3CG (human) (UniProt P48736); assay: Inhibition of PIK3CG Kinase Activity
[2] = target: PIK3CA (human) (UniProt P42336); assay: Enzyme Assay
Chain of PIK3CA (human) (P42336 whole entry, looked up): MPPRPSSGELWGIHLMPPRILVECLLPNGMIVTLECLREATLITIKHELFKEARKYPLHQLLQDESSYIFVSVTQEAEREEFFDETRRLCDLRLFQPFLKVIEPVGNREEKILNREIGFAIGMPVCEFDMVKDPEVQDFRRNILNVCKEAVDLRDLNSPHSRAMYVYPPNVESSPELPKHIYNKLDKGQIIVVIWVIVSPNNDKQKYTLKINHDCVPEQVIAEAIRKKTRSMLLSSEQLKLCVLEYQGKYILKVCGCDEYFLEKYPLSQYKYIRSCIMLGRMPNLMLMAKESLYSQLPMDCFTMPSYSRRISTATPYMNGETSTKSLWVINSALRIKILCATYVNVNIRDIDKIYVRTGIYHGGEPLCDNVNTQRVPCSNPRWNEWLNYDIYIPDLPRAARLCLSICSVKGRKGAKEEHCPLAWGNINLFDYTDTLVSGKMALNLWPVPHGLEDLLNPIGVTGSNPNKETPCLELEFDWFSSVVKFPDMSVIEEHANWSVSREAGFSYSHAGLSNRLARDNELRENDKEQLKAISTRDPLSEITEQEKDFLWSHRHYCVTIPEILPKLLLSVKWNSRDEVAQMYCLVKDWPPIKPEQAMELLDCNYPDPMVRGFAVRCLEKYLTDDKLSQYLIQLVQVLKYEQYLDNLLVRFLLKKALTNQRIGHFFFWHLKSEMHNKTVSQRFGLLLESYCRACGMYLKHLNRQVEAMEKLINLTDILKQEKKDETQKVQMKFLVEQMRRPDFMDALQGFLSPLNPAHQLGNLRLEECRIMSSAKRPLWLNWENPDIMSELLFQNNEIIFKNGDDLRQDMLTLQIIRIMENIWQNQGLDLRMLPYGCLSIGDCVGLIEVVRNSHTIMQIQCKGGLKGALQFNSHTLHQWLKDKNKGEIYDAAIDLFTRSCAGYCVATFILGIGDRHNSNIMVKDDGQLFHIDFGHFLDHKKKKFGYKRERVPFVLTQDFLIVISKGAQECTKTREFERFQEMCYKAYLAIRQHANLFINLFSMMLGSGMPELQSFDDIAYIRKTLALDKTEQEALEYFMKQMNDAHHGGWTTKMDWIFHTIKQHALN

Chain of PIK3CG (human) (P48736 whole entry, looked up): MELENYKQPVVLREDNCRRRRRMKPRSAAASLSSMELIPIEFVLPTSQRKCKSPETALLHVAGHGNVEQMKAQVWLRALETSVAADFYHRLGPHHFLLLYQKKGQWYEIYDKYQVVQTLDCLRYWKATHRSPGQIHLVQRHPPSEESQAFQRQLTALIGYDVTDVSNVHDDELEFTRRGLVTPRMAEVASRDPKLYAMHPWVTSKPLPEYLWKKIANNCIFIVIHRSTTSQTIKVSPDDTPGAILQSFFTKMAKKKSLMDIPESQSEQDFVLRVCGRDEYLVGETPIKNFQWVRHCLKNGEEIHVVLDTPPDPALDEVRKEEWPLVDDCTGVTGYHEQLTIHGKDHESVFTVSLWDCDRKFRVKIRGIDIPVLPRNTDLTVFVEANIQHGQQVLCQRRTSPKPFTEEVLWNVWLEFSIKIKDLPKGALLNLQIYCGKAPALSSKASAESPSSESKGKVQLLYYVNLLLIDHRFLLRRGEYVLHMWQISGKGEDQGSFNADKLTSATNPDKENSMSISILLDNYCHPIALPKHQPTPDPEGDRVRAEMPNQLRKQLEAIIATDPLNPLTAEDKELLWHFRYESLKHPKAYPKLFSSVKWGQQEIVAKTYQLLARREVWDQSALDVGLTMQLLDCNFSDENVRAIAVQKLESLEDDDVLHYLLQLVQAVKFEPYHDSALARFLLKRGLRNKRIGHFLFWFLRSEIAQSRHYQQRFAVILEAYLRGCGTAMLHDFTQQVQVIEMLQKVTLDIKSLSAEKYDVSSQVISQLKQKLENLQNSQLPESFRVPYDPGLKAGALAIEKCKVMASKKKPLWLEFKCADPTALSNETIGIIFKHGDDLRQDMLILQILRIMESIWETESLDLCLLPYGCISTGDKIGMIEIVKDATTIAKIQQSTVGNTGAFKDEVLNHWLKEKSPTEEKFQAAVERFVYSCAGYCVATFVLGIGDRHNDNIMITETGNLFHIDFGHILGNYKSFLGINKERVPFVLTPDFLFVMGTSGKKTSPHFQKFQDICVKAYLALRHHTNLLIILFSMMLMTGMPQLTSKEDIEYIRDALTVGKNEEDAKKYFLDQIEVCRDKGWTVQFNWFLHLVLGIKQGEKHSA

Row | IC50 [1] [µM] | IC50 [2] [µM] | Structure (SMILES)
1 | 9.35 | – | COc1ccc2[nH]cc(/C=C3\Oc4cc(S(=O)(=O)OC(F)(F)F)ccc4C3=O)c2c1
2 | 5 | – | COc1ccc(-c2cccc3c2c(/C=C2\Oc4cc(O)cc(O)c4C2=O)cn3C)cn1
3 | 10 | – | O=C1C(=Cc2c[nH]c3cc(Cl)ccc23)Oc2cc(O)cc(O)c21
4 | 4.88 | 2.28 | O=C1C(=Cc2c(-c3ccccc3)n(CCN3CCCCC3)c3ccccc23)Oc2cc(O)cc(O)c21
5 | 3.97 | 0.478 | COc1ccc2c(c1)c(C=C1Oc3cccc(O)c3C1=O)c(C)n2CCN1CCN(CCO)CC1
6 | – | 12 | Cc1ccc2c(c1)C(=O)/C(=C/c1c(-c3ccc4ccccc4c3)[nH]c3ccccc13)S2
7 | 4.5 | 0.488 | COc1ccc2c(c1)c(C=C1Oc3cccc(O)c3C1=O)c(C)n2CCN1CCN(C)CC1
8 | 11 | – | O=C1C(=Cc2c(-c3ccccc3)n(Cc3cccnc3)c3ccccc23)Oc2cc(O)cc(O)c21
9 | 5 | – | O=C1C(=Cc2c(Br)[nH]c3ccccc23)Oc2c1ccc(O)c2O
10 | 0.0815 | 0.0095 | COc1ccc2[nH]c(CCn3ccnc3)c(/C=C3\Oc4cc(O)cc(O)c4C3=O)c2c1
11 | 7.36 | 0.63 | COC(=O)Nc1ccc2c(c1)C(=O)/C(=C/c1cn(CCN3CCN(C)CC3)c3ccc(OC)cc13)O2
12 | 1.94 | 3.31 | Cn1cc(/C=C2\Oc3cc(O)cc(O)c3C2=O)c2c(Br)cccc21
13 | 1.89 | 0.048 | COc1cc(/C=C/CC2CCNCC2)c2[nH]cc(/C=C3\Oc4cc(O)ccc4C3=O)c2c1
14 | – | 0.133 | CCc1cc(O)cc2c1C(=O)/C(=C/c1c[nH]c3ccc(OC)cc13)O2
15 | 4.15 | 0.337 | COc1ccc2c(c1)c(C=C1Oc3c(ccc(O)c3O)C1=O)c(C)n2CCCCN1CCN(C)CC1
16 | 9.5 | 2.86 | Cn1c(-c2ccc(-c3ccc(CN)cc3)cc2)c(/C=C2\Oc3cc(O)cc(O)c3C2=O)c2ccccc21
17 | 5 | – | COc1ccc2c(c1)c(/C=C1\Oc3c(ccc(O)c3C)C1=O)c(C)n2CCCN(C)C
18 | – | 10 | CNC(=O)Nc1ccc2c(c1)O/C(=C\c1cn(CCCN(C)C)c3ccc(OC)cc13)C2=O

Row | IC50 [1] [µM] | IC50 [2] [µM] | Structure (SMILES)
19 | 11 | – | O=C1C(=Cc2c(-c3ccccc3)n(Cc3ccncc3)c3ccccc23)Oc2cc(O)cc(O)c21
20 | – | 9.19 | Cc1ccc2c(c1)C(=O)/C(=C/c1c(C)[nH]c3ccc([N+](=O)[O-])cc13)S2
21 | – | 9.86 | COc1ccc2[nH]cc(/C=C3\Oc4c(OC)cccc4C3=O)c2c1
22 | 5 | – | O=C1/C(=C/c2c[nH]c3ccc(Cl)cc23)Oc2c1ccc(O)c2O
23 | – | 0.266 | Cn1cc(/C=C2/Oc3cc(O)cc(O)c3C2=O)c2c(-c3ccccc3)cccc21.Cn1cc(/C=C2\Oc3cc(O)cc(O)c3C2=O)c2c(-c3ccccc3)cccc21
24 | 3.17 | 0.204 | COc1ccc2c(c1)c(C=C1Oc3c(ccc(O)c3O)C1=O)c(C)n2CCCCN1CCN(CCO)CC1
25 | 5 | – | CN(c1ccccc1)c1cccc2c1c(/C=C1\Oc3cc(O)cc(O)c3C1=O)cn2C
26 | 11 | – | Cc1cccc2c1c(/C=C1\Oc3cc(O)cc(O)c3C1=O)c(-c1ccccn1)n2C
27 | – | 0.0625 | CCc1cc(OC)cc2c(/C=C3\Oc4cc(O)cc(O)c4C3=O)cn(CCCC#N)c12
28 | 5 | – | COc1cc(-c2ccncc2)c2c(c1)c(/C=C1\Oc3cc(O)ccc3C1=O)cn2CCCC#N
29 | 10 | – | Cn1cc(C=C2Oc3cc(O)cc(O)c3C2=O)c2c(Cl)cccc21
30 | 5 | – | COc1ccc2c(c1)c(/C=C1\Oc3ccc(Br)cc3C1=O)cn2CCCN(C)C
31 | 2.31 | 1.23 | CN(C)Cc1ccc(-c2ccc(-c3c(/C=C4\Oc5cc(O)cc(O)c5C4=O)c4ccccc4n3C)cc2)cc1
32 | – | 0.122 | COc1ccc2[nH]cc(/C=C3\Oc4cc(O)cc(-c5ccccc5)c4C3=O)c2c1
33 | – | 0.12 | COc1ccc2[nH]cc(/C=C3\Oc4cc(O)cc(Br)c4C3=O)c2c1
34 | 4.13 | 0.65 | COc1ccc2c(c1)c(C=C1Oc3cccc(O)c3C1=O)c(C)n2CCN1CCOCC1
35 | 0.954 | 0.231 | COc1ccc2c(c1)c(C=C1Oc3c(ccc(O)c3O)C1=O)c(C)n2CCCCN1CCOCC1
